Results as given in patent US9645154B2, “Method for detecting cancer cell” (ARKRAY, Inc., priority 2010, dated 2017).

How the values were obtained:
[1] = test system: human fibrosarcoma cell line HT1080; assay: Labeled sugar incorporation, fluorescence microscopy image analysis (positive rate); format: cell-based; details: 10 mM, 5 min, 23° C.
Source text: (§1) In accordance with the conventional method, cultured human fibrosarcoma cell line HT1080 (DS Pharma Biomedical Co., Ltd.) was harvested with trypsin (Invitrogen). The human gastric cancer cell line SNU-1 (ATCC), which is a suspension cell line, was directly harvested without any trypsin treatment. The cell suspension of the harvested cancer cells was centrifuged, and the supernatant was removed. The cells were resuspended with Dulbecco's PBS (−) (Nissui Pharmaceutical Co., Ltd.) and centrifuged, and the supernatant was removed again.
(§2) When performing the hemolyzing treatment, the blood cell fraction collected as described above was hemolyzed using ammonium chloride (STEMCELL Technologies) according to the manufacture's manuals.
(§3) The number of the cells was counted for each cell line using a hemacytometer in accordance with the conventional method, and then 10^5 to 10^6 cells per sample (cell suspension) was aliquoted. Each of the sample was centrifuged to remove the supernatant. Subsequently, 2-NBDG (Wako Pure Chemical Industries, Ltd.; at the final concentration given in Table 3 or 4) dissolved in Dulbecco's PBS (−) was added thereto, and the cells were suspended well. After the reaction, Dulbecco's PBS (−) was added to the mixture, and the resultant was centrifuged to remove the supernatant. The cells were resuspended with Dulbecco's PBS (−) and centrifuged, and the supernatant was removed again. The steps of resuspending cells with Dulbecco's PBS (−), centrifuging and removing the supernatant were then repeated 2 to 3 times, thereby washing the cells thoroughly. The cells were resuspended with Dulbecco's PBS (−), the concentration thereof was adjusted, and then added dropwise to a 384-well plate. The plate was centrifuged to spin down the cells. The image was captured with a fluorescence microscope (Nikon Corp.) using B-2A filter combination (Nikon Corp.). The B-2A set covers the following wavelengths. EX (excitation wavelength): 475±15 nm, DM: 505 nm or longer, BA (fluorescence wavelength) 520 nm or longer.
(§4) The acquired images were analyzed using an image analysis software NIS-ELEMENTS (trade name, Nikon Corp.) to evaluate the fluorescence intensity of the cell. […]
In a manner similar to Example 2, each of human breast adenocarcinoma cells (cell line name: MCF-7; DS Pharma Biomedical Co., Ltd.), human colon adenocarcinoma cells (cell line name: SW620; DS Pharma Biomedical Co., Ltd.), human prostate cancer cells (cell line name: PC3; DS Pharma Biomedical Co., Ltd.), human alveolar epithelial cancer cells (cell line name: NCI-H358; DS Pharma Biomedical Co., Ltd.), human gastric cancer cells (cell line name: SNU-1; ATCC) and human fibrosarcoma cells (cell line name: HT1080; DS Pharma Biomedical Co., Ltd.) was detected with the labeled sugar (2-NBDG).

[2] = test system: Blood cells; assay: Labeled sugar incorporation, fluorescence microscopy image analysis (false-positive/negative rate); format: cell-based, human; details: 10 mM, 5 min, 23° C.
Source text: (§5) Blood was collected from a human subject using a vacuum blood collection tube (with EDTA•2K). Blood cells were separated using HetaSep (STEMCELL Technologies) in accordance with manufacturer's instructions.
as §2, §3, §4

[3] = test system: Blood cells; assay: Labeled amino acid incorporation, fluorescence microscopy image analysis (false-positive/negative rate); format: cell-based, human; details: hemolyzed, 30 min, 37° C.; for Negative rate (Blood cells) / Positive rate (Blood cells): 1 mM
Source text: as §5
When performing the hemolyzing treatment, the blood cell fraction collected as described above was hemolyzed using ammonium chloride (STEMCELL Technologies) at room temperature according to the manufacture's manuals.
The number of the cells was counted for each cell line using a hemacytometer in accordance with the conventional method, and then 10^5 to 10^6 cells per sample (cell suspension) was aliquoted. The sample was centrifuged to remove the supernatant. Subsequently, H-Ala(2-Bacd)-OH (Watanabe Chemical Industries, Ltd.) was added thereto (at the final concentration given in Table 5 or 6), and the cells were suspended well. After the reaction, Dulbecco's PBS (−) was added to the mixture, and the resultant was centrifuged to remove the supernatant. The cells were resuspended with Dulbecco's PBS and centrifuged, and the supernatant was removed again. The steps of resuspending cells with Dulbecco's PBS (−), centrifuging and removing the supernatant were then repeated 2 to 3 times, thereby washing the cells thoroughly. The cells were resuspended with Dulbecco's PBS (−), the concentration thereof was adjusted, and then added dropwise to a 384-well plate. The plate was centrifuged to spin down the cells. The image was captured with a fluorescence microscope (Nikon Corp.) using B-2A filter set (Nikon Corp.). The B-2A set covers the same wavelengths as those in Example 2. The acquired images were analyzed using an image analysis software NIS-ELEMENTS (trade name, Nikon Corp.) to evaluate the fluorescence intensity of the cell.
With regard to the labeling substance, H-Lys(DMACA)-OH (Watanabe Chemical Industries, Ltd.) or H-Glu(EDANS)—OH (Watanabe Chemical Industries, Ltd.) was used instead of using H-Ala(2-Bacd)-OH in the staining of Example 3.
(§6) Further, the fluorescence intensity of the cells was evaluated in a manner similar to Example 2, except the fluorescence filter covering the wavelengths of EX (excitation wavelength) of 365/±10, DM of 400 or longer and BA (fluorescence wavelength) of 470±20 was used based on the fluorescent property of the fluorescent substances.

[4] = test system: human gastric cancer cell line SNU-1; assay: Labeled amino acid incorporation, fluorescence microscopy image analysis (positive rate); format: cell-based; details: 1 mM; hemolyzed, 30 min, 37° C.
Source text: as §1, with “prostate cancer” for “fibrosarcoma”, “PC3” for “HT1080”
The number of the cells was counted for each cell line using a hemacytometer in accordance with the conventional method, and then 10^5 to 10^6 cells per sample (cell suspension) was aliquoted. The sample was centrifuged to remove the supernatant. […] The image was captured with a fluorescence microscope (Nikon Corp.) using B-2A filter set (Nikon Corp.). […] The acquired images were analyzed using an image analysis software NIS-ELEMENTS (trade name, Nikon Corp.) to evaluate the fluorescence intensity of the cell. […]
as §6

Row | Compound | Positive rate (Fibrosarcoma cell line) ([1]; hemolyzed) [%] | Positive rate (Fibrosarcoma cell line) ([1]; not hemolyzed) [%] | Negative rate (Blood cells (fresh blood)) ([2]; hemolyzed) [%] | Positive rate (Blood cells (fresh blood)) ([2]; hemolyzed) [%] | Negative rate (Blood cells (fresh blood)) ([2]; not hemolyzed) [%] | Positive rate (Blood cells (fresh blood)) ([2]; not hemolyzed) [%] | Negative rate (Blood cells) [3] [%] | Positive rate (Blood cells) [3] [%] | selectivity for a cancer cell in view of a negative rate ([3]; gastric cancer cell line versus blood cells, Table 15) | Positive rate (Gastric cancer cell line) [4] [%]
1 | O=[N+]([O-])c1ccc(NCC2OC(O)C(O)C(O)[C@@H]2O)c2nonc12 (stereo partly drawn) [6-NBDG, 6-[N-(7-nitrobenz-2-oxa-1,3-diazol-4-yl)amino]-6-deoxy-D-glucose] | 78.7 | 71.1 | 99.1 | 0.9 | 99.1 | 0.9 | – | – | – | –
2 | N[C@@H](CCC(=O)NCCNc1cccc2c(S(=O)(=O)O)cccc12)C(=O)O [H-Glu(EDANS)-OH] | – | – | – | – | – | – | 99.4 | 0.6 | high selectivity | 56.9
3 | CN(C)c1ccc2c(CC(=O)NCCCC[C@H](N)C(=O)O)cc(=O)oc2c1 [H-Lys(DMACA)-OH] | – | – | – | – | – | – | 82.3 | 17.7 | – | 86.1
